Experimental findings from patent US9856218B2, “Inhibitors of PRMT5 and methods of their use” (Ohio State Innovation Foundation, priority 2013, dated 2018) are described below.

In assay [1] the test system is Mantle cell lymphoma cell line Jeko. Briefly: MTS anti-proliferation assay. The assay is classed as cell-based. The procedure:
MTS proliferation assays were performed according the CellTiter 96™ Aqueous Cell Proliferation Assay Technical Bulletin (Promega, Madison, Wis.). 5×10^5 cells were plated in each well of a 96-well plate at 37° C. and assayed for proliferation at 24, 48, and 72 hr. Proliferation signal at 50% of control was used as IC50 for growth.
(§1) Following the synthesis of 14 compounds, the anti-proliferation and pro-apoptotic activities of those compounds was evaluated in Mantle cell lymphoma cell line Jeko. Replicate cultures of Jeko were incubated in DMSO and the compounds for 24, 48 and 72 hours. FITC-Annexin V-PI stained flow cytometry was used to detect the apoptotic population of cells (Table 4).
Background: Tetrazolium dyes change colour on reduction, which living cells bring about.

Assay [2] addresses T1, recombinant human PRMT5/MEP50 enzyme (Homo sapiens, UniProt O14744).
T1 construct: purchased BPS Bioscience
Briefly: Epigenase PRMT methyltransferase (type II-specific) activity/inhibition assay kit. The assay is classed as biochemical. Particulars: 25 ng recombinant human PRMT5/MEP50 per reaction; read-out: Inhibition of PRMT5 mediated H4R3 methylation (IC50). The procedure: The inhibition of PRMT5 mediated H4R3 methylation result was obtained with Epigenase™ PRMT methyltransferase (type II-specific) activity/inhibition assay kit. 25 ng recombinant human PRMT5/MEP50 enzyme (purchased from BPS Bioscience) was used in each reaction.

Assay [3] concerns CAL-27 cell line. The assay can be described thus: Migration scratch assay. The assay is classed as cell-based. Particulars: CAL-27, 16 h and 24 h. The procedure: Referring to FIG. 60, PRMT5 and squamous cell carcinoma migration in response to HLCL-66 is illustrated. Migration was performed as previously described (Nowicki, M. O., et al. (2008) Neuro. Oncol. 10, 690-699). Briefly, a migration scratch assay was performed with CAL-27 cell line treated with HLCL-66 for 0, 16, and 24 hours.

In assay [4] the test system is OG2 cells. The assay can be described thus: Viability/apoptosis assay alone and in combination with temozolomide. The class given is cell-based. Particulars: in combination with TMZ, FIG. 13. An excerpt:
OG2 cells are tumor cells derived from glioblastoma primary tumors.

Assay [5] deals with Mantle cell lymphoma cell line Jeko. Briefly: Induction of apoptosis, FITC-Annexin V-PI flow cytometry. The assay is classed as cell-based. The procedure: Analysis by flow cytometry. Cell viability was also measured by flow cytometry at 24 and 48 hr using annexin-V-FITC and propidium iodide (PI) according to the manufacturer's instructions (BD Biosciences).
as §1
For orientation: Flow cytometry measures light scatter and fluorescence of single cells or particles in a stream.

The subject of assay [6] is multiple cell lines. The assay can be described thus: Proliferation of multiple cell lines (FIG. 59). The class given is cell-based. The note with it: FIG. 59A-E. As for the experimental part:
Proliferation of multiple cell lines was evaluated for CMPD 5, CMPD 7, HLCL61, HLCL-65, and HLCL-66 (FIG. 59A-E).

The structures appear in SMILES notation.

T1 sequence (O14744 2-637 limits assumed): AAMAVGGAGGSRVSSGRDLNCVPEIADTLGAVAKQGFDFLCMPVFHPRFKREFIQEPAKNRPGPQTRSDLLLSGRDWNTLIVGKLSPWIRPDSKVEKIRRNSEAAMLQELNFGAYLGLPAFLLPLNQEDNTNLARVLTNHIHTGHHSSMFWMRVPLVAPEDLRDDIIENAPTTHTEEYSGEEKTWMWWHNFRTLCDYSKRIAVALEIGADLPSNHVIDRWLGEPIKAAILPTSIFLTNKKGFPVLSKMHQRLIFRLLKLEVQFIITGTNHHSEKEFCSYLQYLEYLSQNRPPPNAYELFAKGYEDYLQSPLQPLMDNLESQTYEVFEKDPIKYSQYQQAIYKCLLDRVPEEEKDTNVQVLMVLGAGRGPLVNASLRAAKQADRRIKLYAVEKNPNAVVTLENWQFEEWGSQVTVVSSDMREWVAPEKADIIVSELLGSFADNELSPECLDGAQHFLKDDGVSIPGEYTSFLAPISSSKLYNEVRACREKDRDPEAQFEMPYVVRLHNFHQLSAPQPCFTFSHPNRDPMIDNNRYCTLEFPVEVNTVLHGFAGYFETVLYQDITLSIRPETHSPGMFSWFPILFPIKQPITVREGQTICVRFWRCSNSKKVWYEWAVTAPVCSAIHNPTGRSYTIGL
T1 sequence (Q9BQA1 2-342 partner limits assumed): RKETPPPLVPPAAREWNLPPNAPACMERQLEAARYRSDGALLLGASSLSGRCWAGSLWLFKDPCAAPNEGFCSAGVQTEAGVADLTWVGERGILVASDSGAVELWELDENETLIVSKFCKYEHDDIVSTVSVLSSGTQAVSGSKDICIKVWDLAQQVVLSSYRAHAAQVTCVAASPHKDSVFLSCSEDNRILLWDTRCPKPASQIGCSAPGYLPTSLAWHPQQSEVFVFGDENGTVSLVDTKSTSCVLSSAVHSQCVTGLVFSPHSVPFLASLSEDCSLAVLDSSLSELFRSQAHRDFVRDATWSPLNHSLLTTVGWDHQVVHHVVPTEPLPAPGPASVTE

Take `CCn1c2ccccc2c2cc(/C=C/C(=O)c3ccccc3OC)ccc21` [HLCL-66]: the IC50 in assay [1] (24 h incubation) was 1900 nM; in assay [1] (48 h incubation) it was 400 nM; in assay [1] (72 h incubation), 200 nM; in assay [2], 26000 nM. Besides, the “gap closure (migration)” value in assay [3] was “affected in a dose-response fashion”. For the same compound, the “induction of apoptosis in combination” value in assay [4] is “synergistic”. In addition, the EC50 was 1400 nM in assay [5] (24 h) and 500 nM in assay [5] (48 h). For the same compound, the “potency, proliferation of multiple cell lines” value in assay [6] was “low micromolar range”.

What is called IC50 is the concentration needed to halve the response being measured. In general, EC50 refers to the concentration giving half of the maximal effect. High values mean a less potent agent, low ones a more potent agent.
